Results published in patent US20120122727A1, “IN VITRO METHOD FOR PREDICTING WHETHER A COMPOUND IS GENOTOXIC IN VIVO” (priority 2009, published 2012).
Read-outs that look alike come from different tables or passages of the source. Values belong to the molecule of their own block, whether it stands above or below them.

Test system: primary mouse hepatocytes
Assay: Gene expression in primary mouse hepatocytes, GTX vs non-GTX (four-gene classifier, 24 h)
Method: Hepatocyte cells were incubated and exposed to a compound for 24 h before being harvested for RNA isolation.
The results of the gene expression analysis may then be fed into a statistical software package such as R, Splus, or Microsoft Excel. […] If none or only one of these criteria were met, no point was scored.
For each of the four genes mentioned in the table (1700007K13RIK, GAS2L3, SPC25, DDIT4L), a statistical comparison was made between the normalized expression data for these genes. […] If none or only one of these criteria were met, no point was scored.
For each compound, the sum of the scores for four genes is taken. If this score is 0, a compound can be believed not to be genotoxic. If this score is 1, 2, 3 or 4, a compound is genotoxic.
If none or only one of these criteria were met, no point was scored.

[1] = 24 h exposure, average of four replicates
[2] = log 2 ratio, 24 h exposure, concentration per Table 4
[3] = sum of scores for four genes, 0 = not genotoxic, 1, 2, 3 or 4 = genotoxic

Compound: Clc1cc2c(cc1Cl)Oc1cc(Cl)c(Cl)cc1O2 [TCDD, 2,3,7,8-Tetrachlorodibenzodioxin]
score 1700007K13RIK [1]: 0
score DDIT4L [1]: 0
score GAS2L3 [1]: 0
score SPC25 [1]: 0
Ratios of gene expression treated/untreated 1700007K13RIK [2]: 0.0752
Ratios of gene expression treated/untreated DDIT4L [2]: 0.2646
Ratios of gene expression treated/untreated GAS2L3 [2]: 0.22
Ratios of gene expression treated/untreated SPC25 [2]: 0.01802
Total score [3]: 0

Compound: CCCCCCCCCCCCCC(=O)O[C@@H]1[C@@H](C)[C@@]2(O)[C@@H](C=C(CO)C[C@]3(O)C(=O)C(C)=C[C@@H]23)[C@@H]2C(C)(C)[C@]12OC(C)=O [TPA, Tetradecanoylphorbol Acetate]
score 1700007K13RIK [1]: 0
score DDIT4L [1]: 0
score GAS2L3 [1]: 0
score SPC25 [1]: 0
Ratios of gene expression treated/untreated 1700007K13RIK [2]: −0.0617
Ratios of gene expression treated/untreated DDIT4L [2]: 0.05594
Ratios of gene expression treated/untreated GAS2L3 [2]: 0.01747
Ratios of gene expression treated/untreated SPC25 [2]: 0.03809
Total score [3]: 0

Compound: Cc1cccc(Nc2cc(Cl)nc(SCC(=O)O)n2)c1C [Wyeth, Wy-14,643]
score 1700007K13RIK [1]: 0
score DDIT4L [1]: 0
score GAS2L3 [1]: 0
score SPC25 [1]: 0
Ratios of gene expression treated/untreated 1700007K13RIK [2]: −0.3527
Ratios of gene expression treated/untreated DDIT4L [2]: −0.1013
Ratios of gene expression treated/untreated GAS2L3 [2]: −0.7113
Ratios of gene expression treated/untreated SPC25 [2]: −0.0756
Total score [3]: 0

score 1700007K13RIK [1]: 0
score DDIT4L [1]: 0
score GAS2L3 [1]: 0
score SPC25 [1]: 0
Compound: OC[C@@H](O)[C@@H](O)[C@H](O)[C@H](O)CO [dMan, D-Mannitol]
Ratios of gene expression treated/untreated 1700007K13RIK [2]: 0.02382
Ratios of gene expression treated/untreated DDIT4L [2]: 0.03421
Ratios of gene expression treated/untreated GAS2L3 [2]: −0.2175
Ratios of gene expression treated/untreated SPC25 [2]: −0.0363
Total score [3]: 0

Compound: COc1ccc(C)cc1N [pCres, Para-Cresidine]
Ratios of gene expression treated/untreated 1700007K13RIK: 0.2086
Ratios of gene expression treated/untreated DDIT4L: 1.066
Ratios of gene expression treated/untreated GAS2L3: 1.562
Ratios of gene expression treated/untreated SPC25: 1.331
Total score: 3
score 1700007K13RIK: 0
score DDIT4L: 1
score GAS2L3: 1
score SPC25: 1
